We go through four molecules from patent publication US9192653B2, “Protecting and repairing cartilage and musculoskeletal soft tissues” (University of Rochester, priority 2008, dated 2015).

Assay [1] relates to chick chondrocytes. The experiment in a line: Continuous 48 hr exposure of chick chondrocytes in culture. The following applies: for smurf2 expression: 48 hr chronic, continuous exposure, chick chondrocytes. The class given is cell-based. As for the experimental part:
FIG. 3C is a histogram showing levels of Smurf2 mRNA relative to control in chick sternal chondrocytes cultured with TGFβ, BMP-2, PTHrP, or dibutyryl cyclic adenosine monophosphate (dbcAMP) following a chronic, 48 hour exposure.
The Western blots show pSmad3 and pSmad2 levels in chick sternal chondrocytes cultured in the presence or absence of TGFβ, PTHrP and/or a Smurf2 RNAi (Sf2 RNAi) for 48 hours.
Without meaning to be limited by theory, this may have been due to down-regulation of TGF-β signaling by smurf2, allowing BMP signals to drive hypertrophy.

For assay [2], the system named is articular cartilage. The experiment in a line: Immediate treatment after meniscus/ligament injury (osteoarthritis model). Format: in vivo, mice. Conditions: for proteoglycan in the articular cartilage (Alcian Blue staining intensity): daily injection for 4 weeks starting immediately after surgery; for cartilage loss (histomorphometric joint cartilage area): daily injection for 12 weeks starting immediately after surgery. As for the experimental part:
Treatment with teriparatide or PTH reduces the amount of cartilage loss as compared to treatment with saline. Mice exposed to sham surgery or meniscus/ligament injury, a model for osteoarthritis, were treated, starting immediately after surgery, with saline, teriparatide, or PTH for 4 weeks. […] Mice exposed to sham surgery or meniscus/ligament injury were treated, starting immediately after surgery, with saline, teriparatide, or PTH for 12 weeks.

The test system of assay [3] is cartilage. Put plainly: Delayed treatment of osteoarthritic mice 8 weeks after joint surgery. The following applies: daily injections for 4 weeks after 8 week delay post surgery. Format: in vivo. As to the method: Delayed treatment with teriparatide or PTH reduces the amount of cartilage loss as compared to treatment with saline. Mice were allowed to develop osteoarthritis for 8 weeks following joint surgery, as described above. After 8 weeks, the mice were treated for 4 weeks with daily injections of teriparatide or PTH, a delayed treatment regimen.

In assay [4] the test system is articular cartilage in mice. The experiment in a line: Murine knee injury model (severe injury), daily injection, Alcian Blue histology. The class given is in vivo. As to the method:
Mice were anesthetized and an arthrotomy of the knee was performed. The medial collateral ligament was surgically transected, and the anterior horn of the medial meniscus was surgically removed to create a mild knee injury. For the severe injury group, the anterior cruciate ligament was also transected, causing severe joint instability in combination with the mild meniscal and medial collateral ligament injuries. The knee was surgically closed and animals were allowed free movement subsequently. One group with the severe combined injuries, as the most difficult case for cartilage protection, was treated daily with injections of teriparatide. After sacrifice at appropriate time points, the knee joints were removed, decalcified, embedded in paraffin, and 4-micron thick sections were stained with Alcian Blue to produce photomicrographs as shown in FIG. 4.

Assay [5] has as its system white zone meniscal tears. Put plainly: Rabbit white zone meniscal tear, treatment after surgery. Format: in vivo. The following applies: treated for 4 weeks after surgery, versus saline. As for the experimental part:
FIGS. 12A and 12B show daily treatment with teriparatide for 4 weeks following meniscal surgery results in preliminary meniscal healing. […] Rabbits underwent surgery to produce white zone meniscal tears. The rabbits were treated with either saline (FIG. 12A) or teriparatide (FIG. 12B) after surgery for 4 weeks.

For assay [6], the system named is Rabbit meniscal cells. The experiment in a line: Cultured rabbit meniscal cells, mRNA expression. The class given is cell-based. As to the method: Rabbit meniscal cells were isolated from rabbit menisci and cultured. Cultured meniscal cells were treated with PTH for 1 or 3 days.

For the molecule `CCCC(=O)Nc1ncnc2c1ncn2[C@@H]1O[C@@H]2COP(=O)(O)O[C@H]2[C@H]1OC(=O)CCC` [dbcAMP, dibutyryl cyclic adenosine monophosphate], in assay [1], the smurf2 expression entry is “stimulated smurf2 expression”.

As to `CC[C@H](C)[C@H](NC(=O)[C@H](CCC(=O)O)NC(=O)[C@H](CO)NC(=O)[C@@H](NC(=O)[C@@H](N)CO)C(C)C)C(=O)N[C@@H](CCC(N)=O)C(=O)N[C@@H](CC(C)C)C(=O)N[C@@H](CCSC)C(=O)N[C@@H](Cc1cnc[nH]1)C(=O)N[C@@H](CC(N)=O)C(=O)N[C@@H](CC(C)C)C(=O)NCC(=O)N[C@@H](CCCCN)C(=O)N[C@@H](Cc1cnc[nH]1)C(=O)N[C@@H](CC(C)C)C(=O)N[C@@H](CC(N)=O)C(=O)N[C@@H](CO)C(=O)N[C@@H](CCSC)C(=O)N[C@@H](CCC(=O)O)C(=O)N[C@@H](CCCN=C(N)N)C(=O)N[C@H](C(=O)N[C@@H](CCC(=O)O)C(=O)N[C@@H](Cc1c[nH]c2ccccc12)C(=O)N[C@@H](CC(C)C)C(=O)N[C@@H](CCCN=C(N)N)C(=O)N[C@@H](CCCCN)C(=O)N[C@@H](CCCCN)C(=O)N[C@@H](CC(C)C)C(=O)N[C@@H](CCC(N)=O)C(=O)N[C@@H](CC(=O)O)C(=O)N[C@H](C(=O)N[C@@H](Cc1cnc[nH]1)C(=O)N[C@@H](CC(N)=O)C(=O)N[C@@H](Cc1ccccc1)C(=O)O)C(C)C)C(C)C` [teriparatide], in assay [2], the “proteoglycan in the articular cartilage (Alcian Blue staining intensity)” value was “upregulation of proteoglycan” and the “cartilage loss (histomorphometric joint cartilage area)” value is “reduction in cartilage loss”. Also, the “cartilage loss and regeneration versus saline control” value in assay [3] is “reduction in the loss of cartilage and regeneration of lost cartilage”. In assay [4] (severe injury (ACL and MCL transection plus medial menisectomy), 4, 8, 12 weeks), the “development of cartilage degeneration and osteoarthritis” value was “dramatically retards the development of cartilage degeneration and osteoarthritis”. In addition, the “cellular repair activities and hypertrophy or maturational changes” value in assay [4] (severe knee injury) was “stimulated cellular repair activities with suppression of hypertrophy or maturational changes”. In assay [5], the “meniscal healing (defect, cellularity, proteoglycan content)” value was “narrowing of the defect with increased cellularlity and proteoglycan content”.

For the molecule “parathyroid hormone-related peptide [PTHrP]”, in assay [1], the smurf2 expression entry is recorded as “stimulated smurf2 expression”. Besides, the “pSmad2 and pSmad3 levels (Western blot)” value in assay [1] (chick sternal chondrocytes, 48 hours, reversed by Smurf2 siRNA) was “reduction of pSmad2 and pSmad3”.

B1: parathyroid hormone (protein, listed as Homo sapiens)
chain: MIPAKDMAKVMIVMLAICFLTKSDGKSVKKRSVSEIQLMHNLGKHLNSMERVEWLRKKLQDVHNFVALGAPLAPRDAGSQRPRKKEDNVLVESHEKSLGEADKADVNVLTKAKSQ
modifications: Parathyroid Hormone
notes: Parathyroid hormone, ligand of the PTH/PTHrP receptor (PTHR1)
Turning to B1, in assay [2], the “proteoglycan in the articular cartilage (Alcian Blue staining intensity)” value is given as “upregulation of proteoglycan” and the “cartilage loss (histomorphometric joint cartilage area)” value is “reduction in cartilage loss”. Moreover, the “cyclin D1 mRNA” value in assay [6] (after 3 days of treatment) was “upregulation of mRNA for cyclin D1”. Also, in assay [6] (treated for 1 or 3 days), the “type I collagen mRNA” value is reported as “upregulation of mRNA for type I collagen”. For the same molecule, in assay [3], the “cartilage loss and regeneration versus saline control” value is “reduction in the loss of cartilage and regeneration of lost cartilage”.
